In the supplement of paper PMC9512659:

How the values were obtained:
[1] = tested on: Mycobacterium tuberculosis Erdman (pMV306hsp+LuxG13); test: log2 fractional inhibitory concentration at 50% inhibition (log2 FIC); higher = more antagonistic
Procedure: (§1)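 DiaMOND pairwise dose responses of an equipotent two-drug mixture (1.5-fold, 10-dose series) against autoluminescent M. tuberculosis Erdman in 384-well plates. Growth inhibition was read by OD600 (luminescence for dormancy) in seven media at a constant and a terminal time point; metrics are means of at least biological duplicates. Einf and AUC25 higher = more potent; GRinf lower = more potent; log2FIC negative = synergy.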

[2] = tested on: Mycobacterium tuberculosis Erdman (pMV306hsp+LuxG13); test: log2 fractional inhibitory concentration at 90% inhibition (log2 FIC); higher = more antagonistic
Procedure: as §1

[3] = tested on: Mycobacterium tuberculosis Erdman (pMV306hsp+LuxG13); test: AUC25, normalised area under the dose-response curve up to IC25 (normalised AUC (unitless)); higher = more potent
Procedure: as §1

[4] = tested on: Mycobacterium tuberculosis Erdman (pMV306hsp+LuxG13); test: GRinf, normalised growth-rate inhibition at infinite dose (GR value (unitless, negative = killing)); higher = less potent
Procedure: as §1

[5] = tested on: Mycobacterium tuberculosis Erdman (pMV306hsp+LuxG13); test: Einf, effect of the drug pair at infinite dose (maximum growth inhibition) (fraction inhibition (0-1)); higher = more potent; extreme values may be limits of the assay
Procedure: as §1

CO[C@H]1/C=C/O[C@@]2(C)Oc3c(C)c(O)c4c(O)c(c(/C=N/N5CCN(C)CC5)c(O)c4c3C2=O)NC(=O)/C(C)=C\C=C\[C@H](C)[C@H](O)[C@@H](C)[C@@H](O)[C@@H](C)[C@H](OC(C)=O)[C@@H]1C [rifampicin] + CC(C)=CCC/C(C)=C/CNCCNC1C2CC3CC(C2)CC1C3 [SQ109]
Settings	AUC25, [3]	Einf, [5]	GRinf, [4]	log2 fractional inhibitory concentration, [1]	log2 fractional inhibitory concentration, [2]
growth medium: butyrate 5 mM, time point: constant time point	0.0902	0.914	-0.0141	0.188	–
growth medium: butyrate 5 mM, time point: terminal time point	0.0763	0.959	-0.032	0.0743	-0.456
growth medium: cholesterol 0.2 mM (cholesterol-high), time point: constant time point	0.03	0.992	-0.905	0.231	-0.46
growth medium: cholesterol 0.2 mM (cholesterol-high), time point: terminal time point	0.0325	0.999	-0.83	0.286	-0.383
growth medium: standard 7H9 OADC glycerol, time point: constant = terminal time point (4.2 d)	0.0536	0.909	0.0752	0.0639	–
growth medium: valerate 0.1%, time point: constant time point	0.0301	0.956	0.0222	-0.112	-0.583
growth medium: valerate 0.1%, time point: terminal time point	0.0271	0.962	0.0133	-0.128	-0.625

growth medium: hypoxic dormancy (butyrate + nitrate), then recovery
Settings	AUC25, [3]	Einf, [5]	GRinf, [4]	log2 fractional inhibitory concentration, [1]	log2 fractional inhibitory concentration, [2]
time point: constant time point	0.0556	0.984	-0.371	-1.51	-1.97
time point: terminal time point	0.0342	0.964	0.12	-0.863	-1.05

NNC(=O)c1ccncc1 [isoniazid] + CC(C)=CCC/C(C)=C/CNCCNC1C2CC3CC(C2)CC1C3 [SQ109]
Settings	AUC25, [3]	Einf, [5]	GRinf, [4]	log2 fractional inhibitory concentration, [1]	log2 fractional inhibitory concentration, [2]
growth medium: butyrate 5 mM, time point: constant time point	0.0624	0.897	0.0429	0.35	–
growth medium: butyrate 5 mM, time point: terminal time point	0.0434	0.944	0.0572	0.29	0.00828
growth medium: cholesterol 0.05 mM, time point: constant time point	0.1	0.84	-0.682	1.02	–
growth medium: cholesterol 0.2 mM (cholesterol-high), time point: constant time point	0.0635	0.999	-0.997	0.5	0.434
growth medium: cholesterol 0.2 mM (cholesterol-high), time point: terminal time point	0.0743	1	-0.87	0.189	0.311
growth medium: standard 7H9 OADC glycerol, time point: constant = terminal time point (4.2 d)	0.0551	0.858	0.218	0.45	–
growth medium: valerate 0.1%, time point: constant time point	0.0611	0.964	-0.00837	0.052	0.14
growth medium: valerate 0.1%, time point: terminal time point	0.0646	0.968	-0.0113	0.109	0.00427

growth medium: hypoxic dormancy (butyrate + nitrate), then recovery
Settings	AUC25, [3]	Einf, [5]	GRinf, [4]	log2 fractional inhibitory concentration, [1]	log2 fractional inhibitory concentration, [2]
time point: constant time point	0.0841	0.994	-0.408	-0.42	0.0195
time point: terminal time point	0.0403	0.96	0.13	-0.641	-0.76

CC(C)/N=c1\cc2n(-c3ccc(Cl)cc3)c3ccccc3nc-2cc1Nc1ccc(Cl)cc1 [clofazimine] + CC(C)=CCC/C(C)=C/CNCCNC1C2CC3CC(C2)CC1C3 [SQ109]
Settings	AUC25, [3]	Einf, [5]	GRinf, [4]	log2 fractional inhibitory concentration, [1]	log2 fractional inhibitory concentration, [2]
growth medium: butyrate 5 mM, time point: constant time point	0.0628	0.941	-0.113	-0.227	-0.83
growth medium: butyrate 5 mM, time point: terminal time point	0.0621	0.973	-0.111	-0.367	-0.678
growth medium: cholesterol 0.05 mM, time point: constant time point	0.0691	0.758	-0.558	-0.774	–
growth medium: cholesterol 0.2 mM (cholesterol-high), time point: constant time point	0.0566	0.997	-0.966	-0.041	-0.582
growth medium: cholesterol 0.2 mM (cholesterol-high), time point: terminal time point	0.0744	1	-0.823	0.4	-0.374
growth medium: standard 7H9 OADC glycerol, time point: constant = terminal time point (4.2 d)	0.0939	0.937	-0.0512	-0.519	–

growth medium: hypoxic dormancy (butyrate + nitrate), then recovery
Settings	AUC25, [3]	Einf, [5]	GRinf, [4]	log2 fractional inhibitory concentration, [1]	log2 fractional inhibitory concentration, [2]
time point: constant time point	0.0761	0.99	-0.486	-1.61	-2.43
time point: terminal time point	0.0554	0.962	0.147	-1.78	-1.63

NC(=O)c1cnccn1 [pyrazinamide] + CC(C)=CCC/C(C)=C/CNCCNC1C2CC3CC(C2)CC1C3 [SQ109]
Settings	AUC25, [3]	Einf, [5]	GRinf, [4]	log2 fractional inhibitory concentration, [1]	log2 fractional inhibitory concentration, [2]
growth medium: butyrate 5 mM, time point: constant time point	0.0786	0.915	-0.00249	0.356	–
growth medium: butyrate 5 mM, time point: terminal time point	0.0634	0.946	0.022	0.129	–
growth medium: cholesterol 0.05 mM, time point: constant time point	0.116	0.894	-0.787	–	–
growth medium: cholesterol 0.2 mM (cholesterol-high), time point: constant time point	0.0592	0.977	-0.852	0.707	-0.16
growth medium: cholesterol 0.2 mM (cholesterol-high), time point: terminal time point	0.0665	0.997	-0.789	0.668	-0.347
growth medium: standard 7H9 OADC glycerol, time point: constant = terminal time point (4.2 d)	0.032	0.84	0.242	–	–
growth medium: valerate 0.1%, time point: constant time point	0.0384	0.933	0.0532	-0.164	–
growth medium: valerate 0.1%, time point: terminal time point	0.0424	0.944	0.0196	-0.462	–
